Measured values published in ChEMBL document CHEMBL1201862, “PubChem BioAssay data set” (2004).
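Five concentrations, 48 hours, 96-well plates. Abbreviation: GI50, concentration required for 50% inhibition of growth.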 Activity calls are given as the source filed them. No stated cut-off is given here; in the data, active = GI50 up to about 1.1 µM and inactive = higher.

Tests used:
Experiment in all cases: NCI-60 cell line screen, 48 h
MDA-MB-435 = test system: MDA-MB-435
NCI-H522 = test system: NCI-H522
UO-31 = test system: UO-31
SF-539 = test system: SF-539
IGROV-1 = test system: IGROV-1
U-251 = test system: U-251
UACC-62 = test system: UACC-62
Malme-3M = test system: Malme-3M
786-0 = test system: 786-0
SN12C = test system: SN12C
Hs-578T = test system: Hs-578T
MDA-N = test system: MDA-N
SK-MEL-5 = test system: SK-MEL-5
SR = test system: SR
OVCAR-5 = test system: OVCAR-5
OVCAR-4 = test system: OVCAR-4
ACHN = test system: ACHN
HCT-15 = test system: HCT-15
SK-MEL-28 = test system: SK-MEL-28
COLO 205 = test system: COLO 205

Structure (SMILES) | GI50 (MDA-MB-435) | GI50 (NCI-H522) | GI50 (UO-31) | GI50 (SF-539) | GI50 (IGROV-1) | GI50 (U-251) | GI50 (UACC-62) | GI50 (Malme-3M) | GI50 (786-0) | GI50 (SN12C) | GI50 (Hs-578T) | GI50 (MDA-N) | GI50 (SK-MEL-5) | GI50 (SR) | GI50 (OVCAR-5) | GI50 (OVCAR-4) | GI50 (ACHN) | GI50 (HCT-15) [µM] | GI50 (SK-MEL-28) | GI50 (COLO 205)
COc1ccc(C2=Nn3c(C)nnc3S/C2=C\c2ccc(-c3ccc([N+](=O)[O-])cc3)o2)cc1 | 3.78 µM (inactive) | 6.34 µM (inactive) | 15.1 µM (inactive) | 5.51 µM (inactive) | 20.8 µM (inactive) | 9.33 µM (inactive) | 12.1 µM (inactive) | 30.1 µM (inactive) | 4.94 µM (inactive) | 11 µM (inactive) | 49.4 µM (inactive) | 6.62 µM (inactive) | 19 µM (inactive) | 3.21 µM (inactive) | 18.4 µM (inactive) | 22.2 µM (inactive) | 11.7 µM (inactive) | 10.9 | – | –
CCOC(=O)C1(C(=O)OCC)C[C@H](C)[C@](C)(O)C1 | > 100 µM (inactive) | > 100 µM (inactive) | > 100 µM (inactive) | > 100 µM (inactive) | > 100 µM (inactive) | > 100 µM (inactive) | > 100 µM (inactive) | > 100 µM (inactive) | > 100 µM (inactive) | > 100 µM (inactive) | > 100 µM (inactive) | > 100 µM (inactive) | > 100 µM (inactive) | > 100 µM (inactive) | > 100 µM (inactive) | > 100 µM (inactive) | > 100 µM (inactive) | > 100 | > 100 µM (inactive) | > 100 µM (inactive)
CN(C)c1ccc(C(=C2C=CC(=[N+](C)C)C=C2)c2c(O)c(S(=O)(=O)[O-])cc3cc(S(=O)(=O)O)ccc23)cc1 | > 100 µM (inactive) | > 100 µM (inactive) | > 100 µM (inactive) | > 100 µM (inactive) | > 100 µM (inactive) | > 100 µM (inactive) | > 100 µM (inactive) | > 100 µM (inactive) | > 100 µM (inactive) | > 100 µM (inactive) | > 100 µM (inactive) | > 100 µM (inactive) | > 100 µM (inactive) | > 100 µM (inactive) | > 100 µM (inactive) | > 100 µM (inactive) | > 100 µM (inactive) | > 100 | > 100 µM (inactive) | > 100 µM (inactive)
O=C(O)CCC(C(=O)O)N1C(=O)C2C3CCC(C3)C2C1=O (centres undefined) | > 100 µM (inactive) | > 100 µM (inactive) | – | > 100 µM (inactive) | > 100 µM (inactive) | > 100 µM (inactive) | > 100 µM (inactive) | > 100 µM (inactive) | > 100 µM (inactive) | > 100 µM (inactive) | > 100 µM (inactive) | > 100 µM (inactive) | > 100 µM (inactive) | > 100 µM (inactive) | > 100 µM (inactive) | > 100 µM (inactive) | > 100 µM (inactive) | > 100 | > 100 µM (inactive) | > 100 µM (inactive)
CC(C)=CCN1CC(C)C(=O)Nc2ccccc21 (centres undefined) | > 100 µM (inactive) | 66.8 µM (inactive) | > 100 µM (inactive) | > 100 µM (inactive) | > 100 µM (inactive) | > 100 µM (inactive) | – | > 100 µM (inactive) | > 100 µM (inactive) | > 100 µM (inactive) | > 100 µM (inactive) | > 100 µM (inactive) | 42.6 µM (inactive) | > 100 µM (inactive) | > 100 µM (inactive) | > 100 µM (inactive) | > 100 µM (inactive) | > 100 | > 100 µM (inactive) | > 100 µM (inactive)
Cc1ccc(/C=C2\CCCc3ccccc3C2=O)cc1 | 2.6 µM (inactive) | 6.25 µM (inactive) | 29.6 µM (inactive) | 13.8 µM (inactive) | 7.14 µM (inactive) | 17.4 µM (inactive) | 9.51 µM (inactive) | 8.95 µM (inactive) | 18 µM (inactive) | 11.7 µM (inactive) | 12.4 µM (inactive) | 1.86 µM (inactive) | – | 13.9 µM (inactive) | 10.3 µM (inactive) | 25.9 µM (inactive) | 31.8 µM (inactive) | 6.64 | 22.4 µM (inactive) | 4.94 µM (inactive)
CCCc1c(O)c(=O)c2c(OC)cc(OC)c3c4c(OC)cc(OC)c5c(=O)c(O)c(CCC)c(c1c23)c54 | 0.371 µM (active) | 0.199 µM (active) | 0.404 µM (active) | 0.361 µM (active) | 0.337 µM (active) | 0.415 µM (active) | 0.396 µM (active) | – | 0.676 µM (active) | 1.76 µM (inactive) | 0.468 µM (active) | 0.425 µM (active) | 0.533 µM (active) | 0.141 µM (active) | 2.13 µM (inactive) | 2.56 µM (inactive) | 0.617 µM (active) | 0.746 | 3.13 µM (inactive) | 2.44 µM (inactive)
